The values below come from patent US20100055169A1, “CATIONIC LIPIDS AND USES THEREOF” (ABBOTT LABORATORIES, priority 2008, published 2010).

This series is described as follows: Particle sizing by dynamic light scattering (DynaPro plate reader), in vitro formulations. The class given is physicochemical. Conditions: in vitro formulation b: Cationic lipid/PEG-cholesterol/DSPC/Chol 45/10/15/30 wt %, lipid:siRNA 25:1. Here is the method:
The siRNA concentrations were measured using Quanti-iT RiboGreen RNA reagent (Molecular Probes, (R11490)). Vesicle sizes were characterized by dynamic light scattering with a DynaPro™ Plate Reader (Wyatt Technology) in 96-well half-area UV plate (Coring) after diluting the formulation sample (20 μL) in phosphate buffered saline (80 μL) at a pH of about 7-8. A 1% agarose gel-based assay was used for analyzing nuclease degradation and protection. Encapsulation efficiency (EE) was calculated using data obtained from a RiboGreen assay.
Particle sizes and size distributions (PDI) were characterized by using dynamic light scattering (DLS). A DLS plate reader (Dynapro™, Wyatt Technology) was used for the DLS measurement. This DLS plate reader uses an 830 nm laser and the scattering angle is 158°. It also can control temperature from 4° C. to 70° C. A 96-well format was employed for the samples.
Samples for DLS analysis were prepared by mixing 20 μL of each sample stock solution with 80 μL PBS directly in the 96-well plate (#3697, Corning). Sample mixing was accomplished using a microplate shaker (Orbis, Mikura Ltd.). Plates were read at 20° C. with an acquisition time of 50 seconds for each sample, and data was analyzed with Wyatt Technology's Dynamics V6 software. To rule out potential multiple scattering artifacts, a second plate at 4-fold reduced sample concentrations was independently prepared by mixing 5 μL stock solutions with 95 μL PBS. Under our experimental conditions the results at the two concentrations were very similar, and the final reported result for each sample represents the average of values obtained from the two plates.

Molecule `CCCCC/C=C\C/C=C\CCCCCCCCOCC(CCN1CCCC1)OCCCCCCCC/C=C\C/C=C\CCCCC` (stereo not shown) [Example 24, 1-{3,4-bis[(9Z,12Z)-octadeca-9,12-dienyloxy]butyl}pyrrolidine] registered a Size of 135.4 nm.
